Legend:
[1] = test system: HEK293E cells; experiment: Alternative transgene TNFR-Fc, batch titer by ELISA (Example 4); format: cell-based, Human; conditions: 3.8 mmol/l final VPA, day 5 after transfection
Description: (§1) 10 million suspension-adapted HEK293E cells were resuspended in 0.5 ml of Ex-Cell 293 HEK 293 serum-free medium with 4 mmol/l L-glutamine (Cat. No. 14571C-[…]; Lot No. 6A0093; SAFC Biosciences, Lenexa, Kans., USA, “Ex-Cell” medium; note: “Ex-Cell” medium-as used herein-refers to a medium comprising 4 mmol/l L-glutamine) in a 50-ml filter tube each (TPP AG, Trasadingen, Switzerland; Cat. No. 87050, Lot 20050174). In a separate set, 10 million suspension-adapted CHO DG44 cells were resuspended in 0.5 ml of ProCHO5 serum-free medium with 4 mmol/[…] hypoxanthine and 0.194 g/l thymidine (BioWhittaker (Lonza), Belgium; Cat. No. BE12-[…]; Lot No. 7MB0040; “ProCHO5” medium; note: “ProCHO5” medium-as used herein-refers to a medium comprising 4 mmol/[…] hypoxanthine and 0.194 g/l thymidine) in a 50-ml filter tube each (TPP AG, Trasadingen, Switzerland; Cat. No. 87050, Lot 20050174). […] In short, Goat Anti-Human IgG (Fc Fragment specific; Jackson ImmunoResearch Laboratories Inc., West Grove, Pa., USA; Code Number 109-006-098; Lot No. 72349) was used for coating the ELISA-plates, and with AP-conjugated goat anti-human gamma chain IgG (Biosource) the synthesized TNFR-Fc was detected. […] Absorption was measured at 405 nm against 490 nm using a microplate reader (SPECTRAmaxTM340; Molecular Devices, Palo Alto, Calif., USA).

[2] = test system: CHO DG44 cells; experiment: as above; format: cell-based, Chinese Hamster; conditions: 0.5 mmol/l final VPA, day 5 after transfection
Description: as §1

CCCC(CCC)C(=O)O [VPA, valproic acid]
Batch titer [1]: 159.5 ± 12.0 mg/L | Fold increase over control [1]: 4.5 fold | Batch titer [2]: 27.7 ± 3.7 mg/L | Fold increase over control [2]: 1.8 fold

— patent US20090023186A1, “USE OF VALPROIC ACID FOR ENHANCING PRODUCTION OF RECOMBINANT PROTEINS IN MAMMALIAN CELLS” (EXCELLGENE SA, priority 2007, published 2009)
